# Assay results published in article PMC9609924, “In Vitro Characterization of Inhibitors for Lung A549 and Leukemia K562 Cell Lines from Fungal Transformation of Arecoline Supported by In Silico Docking to M3-mAChR and ADME Prediction” (Pharmaceuticals, 2022).
# Where a name gives a salt, the structure may show the parent alone. Read-outs that look alike come from different tables or passages of the source.
# Tests used:
# [1] = test system: normal lung cell WI38; assay: MTT cytotoxicity assay, normal lung cell WI38; assay type: cell-based; details: for IC50: Homo sapiens, read-out: Normal Lung Cell Line WI38 IC50 ± SD
# Description: (§1) The selectivity index identifies the selectivity of the tested compounds toward the cancer cell line and is calculated by dividing the IC50 against the normal cell line by the IC50 against the cancer cells.
# [2] = test system: normal blood cell PCS-800-016; assay: MTT cytotoxicity assay, normal blood cell PCS-800-016; assay type: cell-based; details: for IC50: read-out: Normal Blood Cell PCS-800-016 IC50 ± SD
# Description: as §1
# [3] = test system: leukemia cancer K562 cells; assay: Annexin V-FITC/propidium iodide apoptosis detection, K562; assay type: cell-based, human; details: for Late apoptosis: untreated control 0.04%; for Early apoptosis: untreated control 0.37%; for Necrosis: untreated control 1.27%; for Total cell death: untreated control 1.68%
# Description: (§2) For cell cycle analysis, a propidium iodide flow cytometry kit (ab139418, Abcam, Cambridge, UK) was used. For apoptosis, we used an annexin V apoptosis kit, which is composed of annexin V-FITC (fluorescein isothiocyanate), 1X binding buffer, and propidium iodide. Detection was conducted by measuring DNA content using a flow cytometer.
# [4] = test system: leukemia K562 cell line; assay: MTT cytotoxicity assay, leukemia K562; details: Homo sapiens, K562, 48 h, read-out: Cytotoxicity IC50 ± SD, Leukemia Cancer Cell K562
# Description: (§3) Cell lines were obtained from the American Type Culture Collection (ATCC). Cells were cultured using Dulbecco’s Modified Eagle’s Medium (DMEM) (Invitrogen/Life Technologies, Waltham, MA, USA) supplemented with 10% fetal bovine serum (FBS, Hyclone, Logan, UT, USA), 10 µg/mL of insulin (Sigma Aldrich, St. Louis, MO, USA) and 1% mixture of penicillin and streptomycin. After incubation for 48 h with the isolated compounds, the viability of cells was measured using an MTT assay to determine the toxic concentration for each compound using the microplate reader according to the published procedures.
# [5] = test system: leukemia cancer K562 cells; assay: Flow cytometry of DNA content, cell cycle distribution, K562; assay type: cell-based, human; details: for %Pre-G1 (sub-G1) cells, cell cycle distribution: untreated control 1.68%; for %G2/M cells, cell cycle distribution: untreated control 12.59%; for %S cells, cell cycle distribution: untreated control 42.57%; for %G0-G1 cells, cell cycle distribution: untreated control 44.84%
# Description: as §2
# [6] = test system: non-small-cell lung cancer A549 cell line; assay: cells; details: Homo sapiens, A549, 48 h, read-out: Cytotoxicity IC50 ± SD, Non-Small-Cell Lung Cancer A549
# Description: as §3
# [7] = test system: non-small-cell lung cancer A549 cells; assay: Annexin V-FITC/propidium iodide apoptosis detection, A549; assay type: cell-based
# Description: (§4) Furthermore, compound 1 induced early and late apoptosis and necrosis (5.09%, 10.38%, and 13.14%, respectively) compared to the untreated cells (0.29%, 0.18%, and 0.79, respectively).
# as §2
# [8] = test system: non-small-cell lung cancer A549 cells; assay: Flow cytometry of DNA content, cell cycle distribution, A549; assay type: cell-based
# Description: as §4, §2
compound,measurement,setting,value
"O=C(O)C1CCCNC1 [Compound 3, D-piperidine-3-carboxylic acid]",IC50,"[1]; WI-38, 48 h",26.6 ± 1.33 µM
same,IC50,[2]; 48 h,37.9 ± 1.89 µM
same,Late apoptosis,[3],30.35%
same,Early apoptosis,[3],2.33%
same,Necrosis,[3],10.54%
same,Total cell death,[3],43.22%
same,IC50,[4],3.33 ± 0.24 µM
same,Phase of cell cycle arrest,[5],S phase
same,"%Pre-G1 (sub-G1) cells, cell cycle distribution",[5],43.22%
same,"%G2/M cells, cell cycle distribution",[5],7.48%
same,"%S cells, cell cycle distribution",[5],57.23%
same,"%G0-G1 cells, cell cycle distribution",[5],35.29%
same,IC50,[6],7.33 ± 0.45 µM
"CN1CCC=C(C(=O)O)C1 [Compound 4, 1-Methyl-1,2,5,6-tetrahydropyridine-3-carboxylic acid]",IC50,[4],67.3 ± 0.53 µM
same,IC50,[6],90.9 ± 0.59 µM
"COc1cccc2c1C(=O)c1c(O)c3c(c(O)c1C2=O)C[C@@](O)(C(=O)CO)C[C@@H]3O[C@H]1C[C@H](N)[C@H](O)[C@H](C)O1 [Doxorubicin, reference compound]",IC50,[4],6.94 ± 0.21 µM
same,IC50,[6],5.05 ± 0.13 µM
"CN[C@@H]1C[C@H]2O[C@@](C)([C@@H]1OC)n1c3ccccc3c3c4c(c5c6ccccc6n2c5c31)C(=O)NC4 [Staurosporine, reference compound]",IC50,[4],5.07 ± 0.36 µM
"C[N+]1([O-])CCC(O)CC1 (stereo not drawn) [Compound 2, 4-Hydroxy-1-methylpiperidine 1-oxide]",IC50,[4],> 100 µM
same,IC50,[6],> 100 µM
"O=C(O)c1cccnc1 [Compound 5, Pyridine-3-carboxylic acid]",IC50,"[1]; WI-38, MTT, 48 h incubation",13.9 ± 0.69 µM
same,IC50,"[2]; MTT, 48 h incubation",20.2 ± 1.01 µM
same,Late apoptosis,[3],11.74%
same,Early apoptosis,[3],2.94%
same,Necrosis,[3],17.06%
same,Total cell death,[3],31.74%
same,IC50,[4],2.15 ± 0.15 µM
same,Phase of cell cycle arrest,[5],S phase
same,"%Pre-G1 (sub-G1) cells, cell cycle distribution",[5],31.74%
same,"%G2/M cells, cell cycle distribution",[5],10.68%
same,"%S cells, cell cycle distribution",[5],52.91%
same,"%G0-G1 cells, cell cycle distribution",[5],36.41%
same,IC50,[6],3.29 ± 0.2 µM
"CN1CCC(O)CC1 [Compound 1, 1-Methylpiperidin-4-ol]",IC50,"[1]; WI-38, MTT, 48 h incubation",18.3 ± 0.91 µM
same,"SI (Lung), selectivity index",[1]; IC50 against normal WI38 divided by IC50 against A549,5.93
same,"SI (Blood Cell), selectivity index",[2]; IC50 against normal PCS-800-016 divided by IC50 against K562,6.32
same,IC50,"[2]; MTT, 48 h incubation",9.87 ± 0.49 µM
same,Fold increase of early apoptosis than control,"[7]; A549, versus untreated cells",17.55 fold
same,Fold increase of late apoptosis than control,"[7]; A549, versus untreated cells",57.67 fold
same,Fold increase of necrosis than control,"[7]; A549, versus untreated cells",16.63 fold
same,Fold increase of total cell death than control,"[7]; A549, versus untreated cells",22.71 fold
same,Late apoptosis,"[7]; A549, untreated control 0.18%",10.38%
same,Early apoptosis,"[7]; A549, untreated control 0.29%",5.09%
same,Necrosis,"[7]; A549, untreated control 0.79%",13.14%
same,Total cell death,"[7]; A549, untreated control 1.26%",28.61%
same,IC50,[4],1.56 ± 0.11 µM
same,Phase of cell cycle arrest,[8],G2/M phase
same,"%Pre-G1 (sub-G1) cells, cell cycle distribution",[8]; untreated control 1.26%,28.61%
same,"%G2/M cells, cell cycle distribution",[8]; untreated control 8.09%,24.88%
same,"%S cells, cell cycle distribution",[8]; untreated control 35.85%,31.01%
same,"%G0-G1 cells, cell cycle distribution",[8]; untreated control 56.06%,44.11%
same,IC50,[6],3.08 ± 0.19 µM
"COC(=O)C1=CCCN(C)C1 [Arecoline hydrobromide, reference compound]",IC50,[4],15.3 ± 1.08 µM
same,IC50,[6],11.7 ± 0.71 µM
